Experimental data published in paper PMC9029695, “5-Aryl-1,3,4-oxadiazol-2-amines Decorated with Long Alkyl and Their Analogues: Synthesis, Acetyl- and Butyrylcholinesterase Inhibition and Docking Study” (Pharmaceuticals, 2022).

Assays:
[1] = target: T1, AChE from electric eel (EeAChE) (Electrophorus electricus, UniProt O42275); assay: Inhibition of AChE, modified Ellman's spectrophotometric method; format: biochemical, electric eel (Electrophorus electricus L.); conditions: for IC50: EeAChE, Ellman's method, mean ± SD, n = three independent experiments
T1 construct: purchased Merck (Prague, Czech Republic)
T1 sequence (O42275 24-633): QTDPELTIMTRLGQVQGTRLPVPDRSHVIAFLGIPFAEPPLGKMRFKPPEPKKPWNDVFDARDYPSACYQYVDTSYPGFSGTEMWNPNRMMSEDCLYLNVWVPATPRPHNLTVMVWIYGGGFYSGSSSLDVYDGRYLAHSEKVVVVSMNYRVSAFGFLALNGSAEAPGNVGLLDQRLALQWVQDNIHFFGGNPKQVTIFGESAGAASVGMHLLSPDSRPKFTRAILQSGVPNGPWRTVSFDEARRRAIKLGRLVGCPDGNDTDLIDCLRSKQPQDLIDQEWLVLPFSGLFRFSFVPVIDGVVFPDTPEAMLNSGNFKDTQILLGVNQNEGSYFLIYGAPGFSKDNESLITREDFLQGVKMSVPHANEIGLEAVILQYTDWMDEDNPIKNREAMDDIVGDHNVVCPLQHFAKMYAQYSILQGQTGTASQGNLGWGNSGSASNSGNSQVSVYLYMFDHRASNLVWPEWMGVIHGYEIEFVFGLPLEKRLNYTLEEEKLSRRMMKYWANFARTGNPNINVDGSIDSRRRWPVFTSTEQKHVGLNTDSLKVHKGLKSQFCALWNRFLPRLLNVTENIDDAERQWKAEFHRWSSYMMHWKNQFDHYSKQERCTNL
Text: (§1) The heterocycles 3 were screened for their ability to interfere with the function of AChE from electric eel (EeAChE) and BChE from equine serum (EqBChE) using Ellman’s method (Table 1). Their activities are expressed as the concentration producing 50% inhibition of enzymatic activity (IC50). In addition, we calculated selectivity indexes (SI) that quantify the selectivity for AChE as more inhibited cholinesterase. SI is the ratio of IC50 for BChE/IC50 for AChE.
(§2) Enzyme inhibition activity of 3 quantified as IC50 values was determined spectrophotometrically using modified Ellman’s method. […] The enzyme activity is measured indirectly by determination of 5-mercapto-2-nitrobenzoic acid ion formed after reaction of the thiol reagent 5,5′-disulfanediyl-bis(2-nitrobenzoic acid) (DTNB) and thiocholine, a product of acetylthiocholine (ATCh) and butyrylthiocholine (BTCh) as substrates for hydrolysis by AChE and BChE, respectively.
(§3) The enzyme activity in final reaction mixture (2000 µL) was 0.2 U/mL, concentration of ATCh (or BTCh) 40 µM and concentration of DTNB 100 µM for all reactions. The compounds 3 were dissolved in DMSO and then diluted in demineralized water (conductivity 3 μS, equipment supplier BKG Water Treatment, Hradec Králové, Czech Republic) to the concentration of 1000 µM. […] The final concentration of DMSO was 0.2%. All experiments were carried in triplicates. The average values of reaction rate (v0-uninhibited reaction, vi-inhibited reaction) were used for construction of the dependence v0/vi vs. concentration of inhibitor. From obtained equation of regression curve, IC50 values were calculated.
(§4) Acetylcholinesterase was used from electric eel (Electrophorus electricus L.; EeAChE) and butyrylcholinesterase originated from equine serum (EqBChE).

[2] = target: T2, BChE from equine serum (EqBChE) (Equus caballus, UniProt P81908); assay: Inhibition of BChE, modified Ellman's spectrophotometric method; format: biochemical; conditions: for IC50: EqBChE, Ellman's method, mean ± SD, n = three independent experiments
T2 construct: butyrylcholinesterase originated from equine serum (EqBChE); purchased Merck (Prague, Czech Republic); host or cells: equine serum
T2 sequence (P81908 whole entry): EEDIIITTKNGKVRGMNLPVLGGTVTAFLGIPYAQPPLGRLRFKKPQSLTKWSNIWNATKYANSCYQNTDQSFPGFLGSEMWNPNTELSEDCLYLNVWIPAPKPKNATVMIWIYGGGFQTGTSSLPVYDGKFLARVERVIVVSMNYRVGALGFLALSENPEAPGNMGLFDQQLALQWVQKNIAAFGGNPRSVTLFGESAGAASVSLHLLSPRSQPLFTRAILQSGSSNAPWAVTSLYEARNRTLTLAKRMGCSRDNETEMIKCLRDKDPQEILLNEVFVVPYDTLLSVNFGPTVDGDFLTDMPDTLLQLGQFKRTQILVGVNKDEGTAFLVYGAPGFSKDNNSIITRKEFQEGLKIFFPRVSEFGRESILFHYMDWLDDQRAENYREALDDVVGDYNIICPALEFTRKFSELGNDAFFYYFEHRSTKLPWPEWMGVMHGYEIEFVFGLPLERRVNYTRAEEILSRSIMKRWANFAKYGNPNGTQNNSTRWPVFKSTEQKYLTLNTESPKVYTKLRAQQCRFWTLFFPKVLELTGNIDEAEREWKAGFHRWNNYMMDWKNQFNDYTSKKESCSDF
Text: as §1, §2, §3, §4

[3] = target: T3, AChE (Electrophorus electricus, UniProt O42275); assay: Reversibility of AChE inhibition (residual enzyme activity over time); format: biochemical, electric eel (Electrophorus electricus L.)
T3 construct: purchased Merck (Prague, Czech Republic)
T3 sequence (O42275 24-633): as the sequence (O42275 24-633) above
Text: Based on the promising in vitro inhibition of AChE by thiadiazole 3t, we investigated the derivative to distinguish between reversible, pseudo-irreversible and irreversible inhibition on the basis of changes in enzyme activity over time in the presence of the inhibitor. In reversible inhibition, the activity of enzyme goes down immediately, but the inhibitory molecule is bound to the target for a short period of time, after which the inhibitor-enzyme complex dissociates, and enzyme activity is restored. In pseudo-irreversible inhibition, the inhibitor binds covalently to the enzyme, but the bond is broken down more slowly, delaying the return of enzyme activity to its initial state. In the case of irreversible inhibitors, the reaction between the enzyme and the inhibitor is not rapid because there is a time-dependent drop of activity. Irreversible inhibitors decrease enzyme activity gradually. […]
Three different inhibitor concentrations (1, 10, and 100 µM) were chosen. […] At given times (5, 10, 15, 20, 30, 40, 50, 60, 260, and 1450 min), DTNB and ATCh were added to the sample taken from the reaction mixture, mixed rapidly, and the absorbance was measured to quantify the enzyme activity. Based on knowledge of the enzyme activity in the absence of the inhibitor (i.e., 100% activity), the percentages of residual enzyme activity in presence of inhibitor were calculated. […]

[4] = target: T3, AChE; assay: Type of AChE inhibition (Lineweaver–Burk plot); format: biochemical, electric eel (Electrophorus electricus L.); conditions: ATCh 20–80 µM, inhibitor 10, 25, 35 and 50 µM
Text: We also valuated the type of inhibition of 3t using AChE. In general, the reversible inhibitors can be classified as competitive, non-competitive, uncompetitive, or mixed type. The type of inhibition could be distinguished using the Lineweaver–Burk plot and the corresponding comparison of two key kinetic parameters: maximum velocity (Vm) and Michaelis constant (KM) of the inhibited and uninhibited reactions. Based on the changes of these parameters and intercept of the lines in Lineweaver–Burk plot, the type of inhibition is uncovered.
The inhibition is associated with a change in both KM and Vm and also their ratio is different compared to the uninhibited reaction. In the Lineweaver–Burk plot, the intersection of the lines is in quadrant III but not on axis.
The procedure was analogous to the determination of IC50. The enzyme activity in the final reaction mixture (2000 µL) was 0.2 U/mL, concentration of ATCh 20–80 µM and concentration of DTNB was 100 µM. For each of the substrate concentrations, four different concentrations of the inhibitor were used (10, 25, 35 and 50 µM). The dependence of absorbance vs. time was observed and the reaction rate was calculated. […] From obtained equations of regression curves in Lineweaver–Burk plot, the values of Michaelis constant (KM) and maximum velocity (Vm) were calculated. […]

Structure (SMILES)	IC50 [1] [µM]	BChE/AChE Ratio (selectivity index, IC50 for BChE/IC50 for AChE) [1]	IC50 [2] [µM]	fold lower AChE inhibition, oxadiazole vs. thiadiazole 3t ([1]; 3t vs. 3l) [×]	fold higher in vitro activity (IC50) against AChE than rivastigmine ([1]; compared with rivastigmine) [×]	fold boost of BChE inhibitory potency, switch of oxygen to sulfur ([2]; 3l vs. 3t) [×]	reversibility of AChE inhibition ([3]; 1, 10 and 100 µM, residual activity followed 5–1450 min)	time at which almost maximum inhibition is reached ([3]; two lower concentrations (1 and 10 µM)) [min]	type of inhibition [4]
CCCCCCCCCCCCNc1nnc(-c2cc([N+](=O)[O-])cc([N+](=O)[O-])c2)o1 [3k, 5-(3,5-Dinitrophenyl)-N-dodecyl-1,3,4-oxadiazol-2-amine]	40.98 ± 0.11	9.4	384 ± 5.34						
CCCCCCCCCCCCNc1nnc(-c2ccncc2)o1 [3l, N-Dodecyl-5-(pyridin-4-yl)-1,3,4-oxadiazol-2-amine]	50.2 ± 0.79	4.4	223 ± 1.54	3.9					
CCCCCCCCCCCCNc1nnc(-c2cccnc2)o1 [3m, N-Dodecyl-5-(pyridin-3-yl)-1,3,4-oxadiazol-2-amine]	64.2 ± 0.93	5.8	369 ± 3.83						
CCCCCCCCCCCCNc1nnc(-c2ccccn2)o1 [3n, N-Dodecyl-5-(pyridin-2-yl)-1,3,4-oxadiazol-2-amine]	60.5 ± 2.42	5.2	315.4 ± 1.96						
CCCCCCCCCCCCNc1nnc(-c2ccncn2)o1 [3o, N-Dodecyl-5-(pyrimidin-4-yl)-1,3,4-oxadiazol-2-amine]	45.5	6.6	298.3 ± 2.19						
CCCCCCCCCCCCNc1nnc(-c2cnccn2)o1 [3p, N-Dodecyl-5-(pyrazin-2-yl)-1,3,4-oxadiazol-2-amine]	92.1 ± 6.11	4.9	452 ± 59.3						
CCCCCCCCCCCCNc1nnc(-c2ccnc(Br)c2)o1 [3q, 5-(2-Bromopyridin-4-yl)-N-dodecyl-1,3,4-oxadiazol-2-amine]	73.4 ± 2.06	3.1	224.2 ± 1.29						
CCCCCCCCCCCCNc1nnc(-c2ccnnc2)o1 [3r, N-Dodecyl-5-(pyridazin-4-yl)-1,3,4-oxadiazol-2-amine]	81.5 ± 4.14	2.9	238 ± 13.8						
CCCCCCCCCCCCSc1nnc(-c2ccncc2)o1 [3s, 2-(Dodecylthio)-5-(pyridin-4-yl)-1,3,4-oxadiazole]	91.6 ± 7.14	>5.5	> 500						
CCCCCCCCCCCCNc1nnc(-c2ccncc2)s1 [3t, N-Dodecyl-5-(pyridin-4-yl)-1,3,4-thiadiazol-2-amine]	12.78 ± 0.03	4.2	53.1 ± 3.68		4.4	4.2	reversible AChE inhibitor	5	mixed type of inhibition
CCCCCCCCCCCCc1nnc(-c2ccncc2)o1 [3u, 2-Dodecyl-5-(pyridin-4-yl)-1,3,4-oxadiazole]	99.2 ± 3.26	2.9	289 ± 1.55						
